The text below walks through data of US20090098072A1, “ANTIOXIDANTS” (priority 2006, published 2009).

This series is described as follows: Photoconversion test (absorption at 300 nm after solar simulator irradiation). The class given is physicochemical. Here is the method:
A 4% solution of the substance in isopropyl myristate is prepared. In each case, 40 μl of the solution are applied to the roughened surface of 2 acrylic glass plates (7.2×2.5 cm). One plate is subsequently irradiated in a solar simulator (Atlas CPS+) for 1 h 50 min with cooling. The sample is subsequently transferred into a 50 ml measuring cylinder and covered with 40 ml of isopropanol for extraction in the ultrasound bath. The sample volume is subsequently made up to precisely 50 ml, and the absorption is measured at 300 nm. An unirradiated batch treated analogously serves as comparison. The absorption can be increased by 22% from 0.094 (dark batch) to 0.115 by the irradiation step.

Structures are written as SMILES.

As to `Cc1ccc(CC2C(=O)C3(C)CCC2C3(C)C)cc1` (stereo not drawn) [Example 1, 1,7,7-trimethyl-3-(4-methylbenzyl)-bicyclo-[2.2.1]heptan-2-one], where the note is “4% solution in isopropyl myristate, 40 μl on acrylic glass plate, extracted with isopropanol to 50 ml, not irradiated”, the “absorption at 300 nm, unirradiated (dark batch)” value is listed as 0.094. Further, the “absorption at 300 nm after irradiation” value (4% solution in isopropyl myristate, 40 μl on acrylic glass plate, solar simulator (Atlas CPS+) 1 h 50 min, extracted with isopropanol to 50 ml) is 0.115. The “increase of absorption at 300 nm by the irradiation step” value (irradiated 1 h 50 min vs dark batch) is on record as 22%.
